According to patent publication US20230019236A1, “PROTEIN TYROSINE PHOSPHATASE INHIBITORS AND METHODS OF USE THEREOF” (Calico Life Sciences LLC, priority 2019, published 2023):

Experiments:
[1] = biological target: T1, His tagged PTPN2 (TC45) protein (Homo sapiens, UniProt P17706); assay: Mobility Shift Assay used to determine potency of PTPN2 inhibitors; assay type: biochemical; conditions: Table 2; read-out: PTPN2 MSA IC50
T1 construct: made in house
T1 sequence (P17706 with tags, fused parts or gaps isoform P17706-2): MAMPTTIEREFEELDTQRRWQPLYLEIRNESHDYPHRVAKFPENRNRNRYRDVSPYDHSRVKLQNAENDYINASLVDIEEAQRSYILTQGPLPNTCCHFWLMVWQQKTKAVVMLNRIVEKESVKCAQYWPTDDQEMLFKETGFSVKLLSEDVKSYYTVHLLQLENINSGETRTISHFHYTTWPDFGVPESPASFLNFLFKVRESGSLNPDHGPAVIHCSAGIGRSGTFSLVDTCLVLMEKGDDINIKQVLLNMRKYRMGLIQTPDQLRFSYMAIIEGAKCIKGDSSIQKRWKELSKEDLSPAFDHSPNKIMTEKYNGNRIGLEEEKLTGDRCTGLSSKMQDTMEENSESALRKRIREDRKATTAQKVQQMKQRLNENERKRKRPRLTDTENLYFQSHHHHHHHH
Method: Example 292: Mobility Shift Assay used to determine potency of PTPN2 inhibitors
Compound activity was determined using in house His tagged PTPN2 (TC45) protein (SEQ ID NO: 1) in an in vitro enzymatic reaction. The enzymatic assay used to determine activity was a mobility shift assay using a LabChip EZ Reader by Caliper Life Sciences. The enzymatic reaction was carried out in assay buffer (50 mM HEPES pH 7.5, 1 mM EGTA, 10 mM EDTA, 0.01% Tween® 20, and 2 mM DTT). The compounds were dispensed on a white 384 well ProxiPlate™ (PerkinElmer Catalog#6008289) plate using the Labcyte Echo at varying concentrations (12 point, 1:3 dilution). The enzyme (at 0.5 nM) was incubated with compound for 10 minutes at room temperature. Then the substrate (phosphorylated insulin receptor probe sequence: ((OG488)—{NH—CH2—CH2—O—CH2—CH2—O—CH2—CO)—T—R—D—I—(PY)—E—T—D—Y—Y—R—K—K—NH2) (SEQ ID NO: 2) was added at 2 μM to the plates and incubated for another 10 minutes at room temperature. Finally, a quench solution (water and 4-bromo-3-(2-oxo-2-propoxyethoxy)-5-(3-{[1-(phenylmethanesulfonyl)piperidin-4-yl]amino}phenyl)thiophene-2-carboxylic acid) was added to the plates, which were then run on the EZ Reader (excitation 488 nm, emission 530 nm) to measure % conversion (the amount of phosphorylated substrate which was de-phosphorylated by PTPN2). […] The % inhibition was then used to calculate the IC50 values.

[2] = biological target: T2, His tagged full-length PTP1B protein (Homo sapiens, UniProt P18031); assay: Mobility Shift Assay (MSA) used to determine potency of PTP1B inhibitors; assay type: biochemical; conditions: Table 2
T2 construct: made in house
T2 sequence (P18031 with tags, fused parts or gaps): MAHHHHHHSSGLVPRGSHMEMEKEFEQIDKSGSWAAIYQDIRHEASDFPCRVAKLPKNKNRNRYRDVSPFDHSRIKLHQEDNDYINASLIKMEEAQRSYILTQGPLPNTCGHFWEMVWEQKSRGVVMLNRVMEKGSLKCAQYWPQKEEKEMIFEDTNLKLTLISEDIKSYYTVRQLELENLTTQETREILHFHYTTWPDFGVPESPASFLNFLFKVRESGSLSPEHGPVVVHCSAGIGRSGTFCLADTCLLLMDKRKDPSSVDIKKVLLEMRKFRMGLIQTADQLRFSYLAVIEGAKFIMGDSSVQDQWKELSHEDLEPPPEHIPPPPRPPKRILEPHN
Method: The enzymatic assay used to determine activity is a mobility shift assay using a LabChip EZ Reader by Caliper Life Sciences. The enzymatic reaction was carried out in assay buffer (50 mM HEPES pH 7.5, 1 mM EGTA, 10 mM EDTA, 0.01% Tween® 20, and 2 mM DTT). […] The enzyme (at 0.5 nM) was incubated with compound for 10 minutes at room temperature. […] The % inhibition was then used to calculate the IC50 values.

IC50 [2] [nM] | SMILES | IC50 [1] [nM]
 | O=C1CN(c2c(O)cc3ccc(OCCC4COC4)cc3c2F)S(=O)(=O)N1 [Compound 373, 5-{1-fluoro-3-hydroxy-7-[2-(oxetan-3-yl)ethoxy]naphthalen-2-yl}-1λ^6,2,5-thiadiazolidine-1,1,3-trione] | 1 to 10
 | CN(CCC#N)CCOc1ccc2cc(O)c(N3CC(=O)NS3(=O)=O)c(F)c2c1 [Compound 389, 3-[(2-{[8-fluoro-6-hydroxy-7-(1,1,4-trioxo-1λ^6,2,5-thiadiazolidin-2-yl)naphthalen-2-yl]oxy}ethyl)(methyl)amino]propanenitrile] | 1 to 10
 | O=C1CN(c2c(O)cc3ccc(OCCC45CC(C4)C5)cc3c2F)S(=O)(=O)N1 [Compound 378, 5-{7-[2-(bicyclo[11.1.1]pentan-1-yl)ethoxy]-1-fluoro-3-hydroxynaphthalen-2-yl}-1λ^6,2,5-thiadiazolidine-1,1,3-trione] | < 1
 | COCCN(C)CCOc1ccc2cc(O)c(N3CC(=O)NS3(=O)=O)c(F)c2c1 [Compound 382, 5-(1-fluoro-3-hydroxy-7-{2-[(2-methoxyethyl)(methyl)amino]ethoxy}naphthalen-2-yl)-1λ^6,2,5-thiadiazolidine-1,1,3-trione] | 10 to 100
 | C[C@](O)(CO)CCOc1cc2c(F)c(N3CC(=O)NS3(=O)=O)c(O)cc2cc1O [Compound 387, 5-{7-[(3R)-3,4-dihydroxy-3-methylbutoxy]-1-fluoro-3,6-dihydroxynaphthalen-2-yl}-1λ^6,2,5-thiadiazolidine-1,1,3-trione] | < 1
 | CC1(O)CN(CCOc2ccc3cc(O)c(N4CC(=O)NS4(=O)=O)c(F)c3c2)C1 [Compound 380, 5-{1-fluoro-3-hydroxy-7-[2-(3-hydroxy-3-methylazetidin-1-yl)ethoxy]naphthalen-2-yl}-1λ^6,2,5-thiadiazolidine-1,1,3-trione] | 1 to 10
 | NCC12CC(CCOc3ccc4cc(O)c(N5CC(=O)NS5(=O)=O)c(F)c4c3)(C1)C2 [Compound 376, 5-(7-{2-[3-(aminomethyl)bicyclo[11.1.1]pentan-1-yl]ethoxy}-1-fluoro-3-hydroxynaphthalen-2-yl)-1λ^6,2,5-thiadiazolidine-1,1,3-trione] | 1 to 10
 | O=C1CN(c2c(O)cc3ccc(OCCN4CCC[C@H]4C(F)(F)F)cc3c2F)S(=O)(=O)N1 [Compound 381, 5-(1-fluoro-3-hydroxy-7-{2-[(2S)-2-(trifluoromethyl)pyrrolidin-1-yl]ethoxy}naphthalen-2-yl)-1λ^6,2,5-thiadiazolidine-1,1,3-trione] | 1 to 10
 | O=C1CN(c2c(O)cc3ccc(OCC45CC(CCO)(C4)C5)cc3c2F)S(=O)(=O)N1 [Compound 377, 5-(1-fluoro-3-hydroxy-7-{[3-(2-hydroxyethyl)bicyclo[1.1.1]pentan-1-yl]methoxy}naphthalen-2-yl)-1λ^6,2,5-thiadiazolidine-1,1,3-trione] | 1 to 10
 | NCC1(CCOc2ccc3cc(O)c(N4CC(=O)NS4(=O)=O)c(F)c3c2)CCC1 [Compound 379, 5-(7-{2-[1-(aminomethyl)cyclobutyl]ethoxy}-1-fluoro-3-hydroxynaphthalen-2-yl)-1λ^6,2,5-thiadiazolidine-1,1,3-trione] | 1 to 10
 | O=C1CN(c2c(O)cc3ccc(OCCCC(F)(F)CO)cc3c2F)S(=O)(=O)N1 [Compound 375, 5-{7-[(4,4-difluoro-5-hydroxypentyl)oxy]-1-fluoro-3-hydroxynaphthalen-2-yl}-1λ^6,2,5-thiadiazolidine-1,1,3-trione] | < 1
 | O=C1CN(c2c(O)cc3ccc(OCCN4Cc5ccccc5C4)cc3c2F)S(=O)(=O)N1 [Compound 384, 5-{7-[2-(1,3-dihydro-2H-isoindol-2-yl)ethoxy]-1-fluoro-3-hydroxynaphthalen-2-yl}-1λ^6,2,5-thiadiazolidine-1,1,3-trione] | 1 to 10
 | O=C1CN(c2c(O)cc3ccc(OCCN4CC(F)(F)C4)cc3c2F)S(=O)(=O)N1 [Compound 385, 5-{7-[2-(3,3-difluoroazetidin-1-yl)ethoxy]-1-fluoro-3-hydroxynaphthalen-2-yl}-1λ^6,2,5-thiadiazolidine-1,1,3-trione] | 1 to 10
 | O=C1CN(c2c(O)cc3ccc(OCCC4(CO)CCC4)cc3c2F)S(=O)(=O)N1 [Compound 374, 5-(1-fluoro-3-hydroxy-7-{2-[1-(hydroxymethyl)cyclobutyl]ethoxy}naphthalen-2-yl)-1λ^6,2,5-thiadiazolidine-1,1,3-trione] | < 1
 | CCN(C)CCOc1ccc2cc(O)c(N3CC(=O)NS3(=O)=O)c(F)c2c1 [Compound 388, 5-(7-{2-[ethyl(methyl)amino]ethoxy}-1-fluoro-3-hydroxynaphthalen-2-yl)-1λ^6,2,5-thiadiazolidine-1,1,3-trione] | 1 to 10
1 to 10 | CCOCCCOc1ccc2cc(O)c(N3CC(=O)NS3(=O)=O)c(F)c2c1 [Compound 216, 5-[7-(3-ethoxypropoxy)-1-fluoro-3-hydroxynaphthalen-2-yl]-1λ^6,2,5-thiadiazolidine-1,1,3-trione] | 
10 to 100 | O=C1CN(c2c(O)cc3ccc4occc4c3c2F)S(=O)(=O)N1 [Compound 104, 5-(9-fluoro-7-hydroxynaphtho[2,1-b]furan-8-yl)-1λ^6,2,5-thiadiazolidine-1,1,3-trione] | 
1 to 10 | [2H]C1([2H])C(=O)NS(=O)(=O)N1c1c(O)cc2ccc(OC)cc2c1F [Compound 123, 5-(1-fluoro-3-hydroxy-7-methoxynaphthalen-2-yl)(4,4-^2H2)-1λ^6,2,5-thiadiazolidine-1,1,3-trione] | 
10 to 100 | CCCOc1ccc2cc(O)c(N3CC(=O)NS3(=O)=O)c(F)c2c1 [Compound 278, 5-(1-fluoro-3-hydroxy-7-propoxynaphthalen-2-yl)-1λ^6,2,5-thiadiazolidine-1,1,3-trione] | 
10 to 100 | O=C1CN(c2c(O)cc3ccc(OCCN4CCOCC4)cc3c2F)S(=O)(=O)N1 [Compound 100, 5-{1-fluoro-3-hydroxy-7-[2-(morpholin-4-yl)ethoxy]naphthalen-2-yl}-1λ^6,2,5-thiadiazolidine-1,1,3-trione] | 
1 to 10 | O=C1CN(c2c(O)cc3ccc(OC4CC4)cc3c2F)S(=O)(=O)N1 [Compound 223, 5-[7-(cyclopropyloxy)-1-fluoro-3-hydroxynaphthalen-2-yl]-1λ^6,2,5-thiadiazolidine-1,1,3-trione] | 
> 100 | CCOCCOc1ccc2cc(O)c(N3CC(=O)NS3(=O)=O)c(F)c2c1 [Compound 246, 5-[7-(2-ethoxyethoxy)-1-fluoro-3-hydroxynaphthalen-2-yl]-1λ^6,2,5-thiadiazolidine-1,1,3-trione] | 
> 100 | N#CCOc1ccc2cc(O)c(N3CC(=O)NS3(=O)=O)c(F)c2c1 [Compound 203, {[8-fluoro-6-hydroxy-7-(1,1,4-trioxo-1λ^6,2,5-thiadiazolidin-2-yl)naphthalen-2-yl]oxy}acetonitrile] | 
10 to 100 | CC(C)(C)CCNc1ccc2cc(O)c(N3CC(=O)NS3(=O)=O)c(F)c2c1 [Compound 116, 5-{7-[(3,3-dimethylbutyl)amino]-1-fluoro-3-hydroxynaphthalen-2-yl}-1λ^6,2,5-thiadiazolidine-1,1,3-trione] | 

SMILES | IC50 [2] [nM] | IC50 [1] [nM]
O=C1CN(c2c(O)cc3ccc(C4=CCN(CC(F)(F)F)CC4)cc3c2F)S(=O)(=O)N1 [Compound 275, 5-{1-fluoro-3-hydroxy-7-[1-(2,2,2-trifluoroethyl)-1,2,3,6-tetrahydropyridin-4-yl]naphthalen-2-yl}-1λ^6,2,5-thiadiazolidine-1,1,3-trione] | 10 to 100 | 
